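1) Cells in 96-well plates. 2) Compound, 48 h, 5 concentrations. 3) Linear interpolation between surrounding doses. 4) Unreached endpoint = highest concentration. GI50 = concentration required for 50% inhibition of growth.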 Activity calls are given as the source filed them. No stated cut-off is given here; in the data, active = GI50 up to about 1.1 µM and inactive = higher.
Key:
Assay in all cases: inhibition of tumour cell growth, NCI panel, 48 h
[1] = system: CCRF-CEM
[2] = system: HCT-116
[3] = system: HOP-92
[4] = system: IGROV-1
[5] = system: K562
[6] = system: KM12
[7] = system: MCF7
[8] = system: MDA-N
[9] = system: NCI-H226
[10] = system: NCI/ADR-RES
[11] = system: OVCAR-5
[12] = system: OVCAR-8
[13] = system: RPMI-8226
[14] = system: RXF 393
[15] = system: SK-MEL-5
[16] = system: SN12C
[17] = system: SR
[18] = system: UACC-257
[19] = system: Malme-3M
[20] = system: SNB-19

Compound	GI50 [1]	GI50 [2]	GI50 [3]	GI50 [4]	GI50 [5]	GI50 [6]	GI50 [7]	GI50 [8]	GI50 [9]	GI50 [10]	GI50 [11]	GI50 [12]	GI50 [13]	GI50 [14]	GI50 [15]	GI50 [16]	GI50 [17]	GI50 [18]	GI50 [19]	GI50 [20]
CCOC(=O)[C@@H]1ON2O[C@H](OC3CCCCC3c3ccccc3)C[C@H]3OC(=O)[C@@H]1C32 (some centres undefined)	0.209 µM (active)	> 100 µM (inactive)	> 100 µM (inactive)	> 100 µM (inactive)	> 100 µM (inactive)	80 µM (inactive)	> 100 µM (inactive)	> 100 µM (inactive)	> 100 µM (inactive)	> 100 µM (inactive)	> 100 µM (inactive)	> 100 µM (inactive)	> 100 µM (inactive)	> 100 µM (inactive)	> 100 µM (inactive)	> 100 µM (inactive)	> 100 µM (inactive)	> 100 µM (inactive)	–	–
Cc1cc2c(cc1Cl)SC(c1ccccc1)C(=O)NS2(=O)=O (centres undefined)	47.4 µM (inactive)	20.5 µM (inactive)	30.5 µM (inactive)	40.8 µM (inactive)	39.2 µM (inactive)	30.3 µM (inactive)	34 µM (inactive)	34.1 µM (inactive)	36.3 µM (inactive)	29.5 µM (inactive)	45.9 µM (inactive)	36.2 µM (inactive)	34 µM (inactive)	31.4 µM (inactive)	21.6 µM (inactive)	–	27.5 µM (inactive)	28.2 µM (inactive)	–	–
O=C(O)[C@@H]1CCCN1 [PROLINE]	–	> 100 µM (inactive)	> 100 µM (inactive)	> 100 µM (inactive)	> 100 µM (inactive)	> 100 µM (inactive)	> 100 µM (inactive)	> 100 µM (inactive)	> 100 µM (inactive)	> 100 µM (inactive)	> 100 µM (inactive)	> 100 µM (inactive)	> 100 µM (inactive)	> 100 µM (inactive)	> 100 µM (inactive)	> 100 µM (inactive)	> 100 µM (inactive)	> 100 µM (inactive)	> 100 µM (inactive)	> 100 µM (inactive)
